Data taken from PubChem BioAssay AID2744 (NMMLSC, 2010).
pEC50: −log10 of the molar value. The source made the active and inactive calls.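 Rule for the calls: active = fitted half-maximal concentration for changing reporter fluorescence at or below a set limit; inactive = the rest.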

Target: Citrate synthase, peroxisomal (Saccharomyces cerevisiae (strain ATCC 204508 / S288c)) (UniProt P08679)
Test: CIT2-GFP expression modulators in yeast, dose response, flow cytometry, MLPCN hits (AID 2744)
Conditions: S. cerevisiae CIT2-GFP strain, 3 h; for GFP fluorescence, higher = induction: at 33 µM (top of the series); for pEC50: flow cytometry fluorescence

Sequence of Citrate synthase, peroxisomal (Saccharomyces cerevisiae (strain ATCC 204508 / S288c)) (P08679 whole entry, looked up): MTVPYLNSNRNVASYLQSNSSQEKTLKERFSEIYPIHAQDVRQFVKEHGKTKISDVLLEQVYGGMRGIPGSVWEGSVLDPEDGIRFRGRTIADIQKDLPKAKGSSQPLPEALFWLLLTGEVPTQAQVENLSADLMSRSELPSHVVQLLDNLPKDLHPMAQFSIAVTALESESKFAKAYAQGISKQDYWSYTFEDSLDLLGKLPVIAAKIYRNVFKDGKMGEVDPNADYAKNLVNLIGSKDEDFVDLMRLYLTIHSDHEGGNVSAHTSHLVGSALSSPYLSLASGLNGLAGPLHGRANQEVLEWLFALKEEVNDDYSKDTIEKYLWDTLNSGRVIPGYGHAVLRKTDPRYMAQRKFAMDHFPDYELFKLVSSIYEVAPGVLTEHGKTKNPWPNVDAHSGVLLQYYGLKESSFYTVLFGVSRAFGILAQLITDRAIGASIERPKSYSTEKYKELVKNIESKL

| Compound | GFP fluorescence, higher = induction | pEC50 |
| --- | --- | --- |
| CC(Oc1cc2oc(=O)c3c(c2cc1Cl)CCC3)C(=O)NCCN1CCOCC1 (configuration not stated) | inactive |  |
| CC[C@H](C)/C=C(C)/C=C/C1=CC2=C(Cl)C(=O)[C@@](C)(OC(C)=O)C(=O)C2=CO1 | inactive |  |
| CCN1/C(=C/c2ccc3cc(C)ccc3[n+]2CC)Sc2ccc3sccc3c21 | inactive |  |
| O=C(/C=C/c1ccccn1)c1ccc(Br)cc1O | inactive |  |
| CC(C)CC(=O)NC(=S)Nc1nc(-c2ccccc2)cs1 | inactive |  |
| O=C(Nc1ccc(N2CCOCC2)cc1)C1CCN(S(=O)(=O)c2ccc3c(c2)OCCO3)CC1 | inactive |  |
| O=C(C#Cc1ccccc1)c1cccc([N+](=O)[O-])c1 | inactive |  |
| COc1ccccc1NC1=C(Cl)C(=O)N(c2ccccc2)C1=O | inactive |  |
| O=c1c2sc(-c3ccccc3)cc2nc2n1CCC2 | inactive |  |
| Cc1ccc(/C=C2\SC(=S)N(Cc3ccccc3)C2=O)o1 | inactive |  |
| O=C(/C=C/c1cc(Br)ccc1O)c1ccco1 | inactive |  |
| O=C(COc1ccccc1)NNC(=S)NC(=O)c1ccc(Cl)cc1Cl | inactive |  |
| Cc1cc(NC(=O)c2cccnc2Cl)ccc1NC(=O)c1cc2ccccc2o1 | inactive |  |
| COc1ccc(NC2=C(Cl)C(=O)N(CCc3ccccc3)C2=O)c(OC)c1 | inactive |  |
| Cc1ccc2nc(/C(C#N)=C/c3ccc(O)c(O)c3)[nH]c2c1 | inactive |  |
| N/C(=N\OC(=O)c1ccc(Cl)cc1Cl)c1ccccc1 |  | 5.38 |
| O=[N+]([O-])c1ccc(O)c(/C=N/Nc2ccccn2)c1 | inactive |  |
| COc1ccccc1N=Cc1nc(-c2ccccc2)oc1OC(C)=O | inactive |  |
| O=C1C=CC(=O)N1c1ccc(OC(F)F)cc1 | inactive |  |
| COc1ccc([C@@]2(C(C)C)ON(c3ccccc3C(F)(F)F)C2=O)cc1 | inactive |  |
| Oc1c(C(Nc2nc3ccccc3s2)c2ccco2)ccc2cccnc12 (configuration not stated) | inactive |  |
| COc1ccccc1N1C(=O)c2cccc3c(C(=O)O)ccc(c23)C1=O | inactive |  |
| N/C(Cc1ccc(Cl)cc1)=N\OC(=O)c1cccc2ccccc12 |  | 5.87 |
| O=C(Oc1ccnc2cc(Cl)ccc12)N1CCCCCC1 | inactive |  |

| Compound | GFP fluorescence, higher = induction | pEC50 |
| --- | --- | --- |
| Cc1ccc(NC(=O)c2ccc(Cl)c(N3C(=O)C=CC3=O)c2)cc1 | inactive |  |
| CCCCCCCCCCCCCCCC[n+]1cccc2ccccc21 | inactive |  |
| O=C(NC(=S)NNC(=O)c1cnccn1)c1ccc(F)cc1 | inactive |  |
| COc1cccc(C(=O)Nc2nnc(-c3ccc(Cl)cc3)o2)c1 | inactive |  |
| Cc1c(Br)c(=O)oc2c(Br)c(O)c(O)cc12 | inactive |  |
| Cc1cccc(C(=O)NC(=S)NNC(=O)Cc2ccccc2)c1 | inactive |  |
| O/C=c1\ccc2cccc3nc(C(F)(F)F)nc1c23 | inactive |  |
| COc1ccc(/C=C2/C(=O)ON=C2c2ccccc2)cc1OC | inactive |  |
| CC(C)(C)C1C/C(=C/c2ccccn2)C(=O)/C(=C/c2ccccn2)C1 (configuration not stated) | inactive |  |
| COc1ccc(OCC(=O)NNC(=S)NC(=O)C2CCCCC2)cc1 | inactive |  |
| O=[N+]([O-])c1ccc(Sc2nc3ccccc3o2)c([N+](=O)[O-])c1 | inactive |  |
| CC(C)[C@@]1(c2ccc(Cl)cc2)ON(c2ccccc2C(F)(F)F)C1=O | inactive |  |
| O=C(c1ccc(Cl)cc1)N1CCN(c2cccc3[nH]ccc23)CC1 | inactive |  |
| COc1cc(/C=C2\C(=O)ON=C2c2ccccc2)cc(OC)c1OC | inactive |  |
| CCc1ccc(/C=C/C(=O)c2cc(Br)ccc(=O)c2O)cc1 | inactive |  |
| COc1cc(NC(=O)c2ccc(C)cc2)ccc1NC(=O)c1cc2ccccc2o1 | inactive |  |
| O=c1[nH]c(-c2ccccn2)nc(C(F)(F)F)c1Br | inactive |  |
| Cc1ccc(S(=O)(=O)N2CCCC2C(=O)NCc2ccncc2)cc1 (configuration not stated) | inactive |  |
| CC1(C(=O)NC(=S)NNC(=O)c2ccncc2)CCCCC1 | inactive |  |
| O=C(OCC(=O)N1CCN(C(=O)c2ccco2)CC1)c1cc(-c2cccc(Br)c2)nc2ccccc12 | inactive |  |
| COC(CNC(=O)c1ccc2c3c(onc13)-c1ccccc1C2=O)OC | inactive |  |
| COc1ccc(N2C(=O)C(Cl)=C(Oc3cccc(OC)c3)C2=O)cc1 | inactive |  |
| C=CCN1C(=O)/C(=C/c2cccs2)C(=O)NC1=S | inactive |  |
